Experimental data as given in ChEMBL document CHEMBL1124159, “Synthesis and structure-activity relationships of 2-sulfonamido-1,3,4,6,7,11b alpha-hexahydro-2H-benzo[a]quinolizines as alpha 2-adrenoceptor antagonists” (J Med Chem, 1988).

Assays:
[1] = biological target: T1, Adrenergic receptor alpha-2 (Rattus norvegicus, UniProt P22086+P19328+P22909); test: Antagonistic activity against alpha-2 adrenergic receptor in rat vas deferens; format: functional, tissue-based
T1 sequence (P22086 whole entry): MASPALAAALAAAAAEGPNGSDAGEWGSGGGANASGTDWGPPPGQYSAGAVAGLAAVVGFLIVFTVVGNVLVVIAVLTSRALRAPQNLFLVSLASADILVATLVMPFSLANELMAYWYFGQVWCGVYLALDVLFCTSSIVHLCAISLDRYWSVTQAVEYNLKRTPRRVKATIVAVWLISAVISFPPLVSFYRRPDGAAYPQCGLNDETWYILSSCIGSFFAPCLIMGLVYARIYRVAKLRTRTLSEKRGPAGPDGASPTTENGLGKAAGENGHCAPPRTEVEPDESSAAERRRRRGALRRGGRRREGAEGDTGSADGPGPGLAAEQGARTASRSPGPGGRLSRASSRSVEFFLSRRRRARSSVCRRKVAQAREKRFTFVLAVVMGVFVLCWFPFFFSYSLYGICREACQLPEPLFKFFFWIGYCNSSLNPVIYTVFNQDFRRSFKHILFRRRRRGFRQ
T1 sequence (P19328 whole entry): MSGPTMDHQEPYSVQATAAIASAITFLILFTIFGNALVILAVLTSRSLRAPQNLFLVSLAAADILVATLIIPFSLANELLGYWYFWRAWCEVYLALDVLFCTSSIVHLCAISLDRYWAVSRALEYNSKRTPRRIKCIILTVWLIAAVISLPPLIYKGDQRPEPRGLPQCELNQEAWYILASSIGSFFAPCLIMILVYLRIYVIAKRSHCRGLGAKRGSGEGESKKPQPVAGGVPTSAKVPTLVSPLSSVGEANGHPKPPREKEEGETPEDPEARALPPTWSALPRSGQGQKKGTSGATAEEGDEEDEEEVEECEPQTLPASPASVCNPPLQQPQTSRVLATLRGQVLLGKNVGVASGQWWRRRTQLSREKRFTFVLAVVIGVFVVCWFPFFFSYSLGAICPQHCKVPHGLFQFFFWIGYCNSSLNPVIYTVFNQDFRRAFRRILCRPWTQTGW
T1 sequence (P22909 whole entry): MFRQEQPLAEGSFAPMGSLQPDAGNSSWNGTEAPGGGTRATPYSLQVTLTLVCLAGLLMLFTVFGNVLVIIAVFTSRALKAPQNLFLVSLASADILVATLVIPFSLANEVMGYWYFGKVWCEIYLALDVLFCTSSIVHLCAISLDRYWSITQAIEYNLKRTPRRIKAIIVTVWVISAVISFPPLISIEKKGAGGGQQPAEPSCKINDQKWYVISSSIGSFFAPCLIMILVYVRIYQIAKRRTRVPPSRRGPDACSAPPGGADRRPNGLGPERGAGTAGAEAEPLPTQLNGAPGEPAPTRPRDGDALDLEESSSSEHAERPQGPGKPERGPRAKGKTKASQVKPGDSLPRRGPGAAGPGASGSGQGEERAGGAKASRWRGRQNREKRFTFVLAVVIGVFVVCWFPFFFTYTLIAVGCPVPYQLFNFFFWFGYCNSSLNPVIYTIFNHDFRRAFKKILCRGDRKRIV

[2] = biological target: T2, Adrenergic receptor alpha-1 (Rattus norvegicus, UniProt P15823+P23944+P43140); test: Antagonistic activity against alpha-1-adrenoceptor in isolated rat anococcygeus muscle; format: functional, tissue-based, Muscle tissue
T2 sequence (P15823 whole entry): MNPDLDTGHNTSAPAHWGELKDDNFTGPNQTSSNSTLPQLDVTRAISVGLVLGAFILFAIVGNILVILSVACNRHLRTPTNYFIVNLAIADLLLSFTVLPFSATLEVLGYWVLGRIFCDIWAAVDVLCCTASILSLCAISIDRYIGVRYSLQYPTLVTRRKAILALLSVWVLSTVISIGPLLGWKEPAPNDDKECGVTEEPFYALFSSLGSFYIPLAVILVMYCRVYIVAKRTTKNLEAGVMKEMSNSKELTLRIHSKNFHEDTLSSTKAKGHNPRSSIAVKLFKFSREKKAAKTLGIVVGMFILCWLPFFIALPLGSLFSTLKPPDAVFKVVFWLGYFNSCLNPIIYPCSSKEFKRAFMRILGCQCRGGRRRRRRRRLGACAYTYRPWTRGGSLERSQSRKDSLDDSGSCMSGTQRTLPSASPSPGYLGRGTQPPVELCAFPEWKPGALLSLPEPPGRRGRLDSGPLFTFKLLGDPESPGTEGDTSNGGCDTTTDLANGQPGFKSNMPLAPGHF
T2 sequence (P23944 whole entry): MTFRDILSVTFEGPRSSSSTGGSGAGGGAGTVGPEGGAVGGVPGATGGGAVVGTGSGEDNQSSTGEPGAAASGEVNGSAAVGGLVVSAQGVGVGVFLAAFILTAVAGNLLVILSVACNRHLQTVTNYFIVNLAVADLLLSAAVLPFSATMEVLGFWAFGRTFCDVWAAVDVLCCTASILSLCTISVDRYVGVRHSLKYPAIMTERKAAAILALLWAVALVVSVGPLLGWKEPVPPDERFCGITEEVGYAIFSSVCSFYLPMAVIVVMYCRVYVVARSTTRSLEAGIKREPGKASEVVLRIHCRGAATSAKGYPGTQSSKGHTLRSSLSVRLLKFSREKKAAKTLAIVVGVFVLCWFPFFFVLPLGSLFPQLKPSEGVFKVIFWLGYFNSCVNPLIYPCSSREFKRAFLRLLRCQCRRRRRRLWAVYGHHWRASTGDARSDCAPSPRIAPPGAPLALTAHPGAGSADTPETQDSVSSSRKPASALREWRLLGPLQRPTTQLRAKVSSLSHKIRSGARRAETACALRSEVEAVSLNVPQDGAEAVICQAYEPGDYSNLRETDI
T2 sequence (P43140 whole entry): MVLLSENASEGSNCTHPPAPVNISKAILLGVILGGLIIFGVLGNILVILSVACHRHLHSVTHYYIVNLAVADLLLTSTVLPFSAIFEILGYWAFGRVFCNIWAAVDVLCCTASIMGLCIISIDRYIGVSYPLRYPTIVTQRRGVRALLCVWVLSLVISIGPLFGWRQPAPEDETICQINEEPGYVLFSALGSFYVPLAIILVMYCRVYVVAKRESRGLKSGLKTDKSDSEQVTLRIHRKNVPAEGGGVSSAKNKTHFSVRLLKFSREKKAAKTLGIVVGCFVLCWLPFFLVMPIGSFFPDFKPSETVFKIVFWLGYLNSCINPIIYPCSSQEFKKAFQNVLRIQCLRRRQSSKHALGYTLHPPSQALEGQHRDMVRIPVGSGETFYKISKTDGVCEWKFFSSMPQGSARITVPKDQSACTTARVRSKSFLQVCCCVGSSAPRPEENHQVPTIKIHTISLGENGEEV

[3] = biological target: T2, Adrenergic receptor alpha-1; test: Antagonistic activity against alpha-1 adrenergic receptor in rat anococcygeus muscle

SMILES | pA2 [1] | pA2 [2] | pA2 [3]
CS(=O)(=O)N[C@@H]1CCN2CCc3ccccc3[C@@H]2C1 | 6.27 | 5.33 | 
CCCS(=O)(=O)N(C)[C@@H]1CCN2CCc3ccccc3[C@@H]2C1 (stereo in doubt) | 8.5 |  | 7.2
CC(C)CS(=O)(=O)N(C)[C@@H]1CCN2CCc3ccccc3[C@@H]2C1 (stereo in doubt) | 8.05 |  | 6.9
